# Results from US20100016232A1, “Treatment Of Inflammatory Diseases With Mammal Beta Defensins” (Novozymes A/S, priority 2008, published 2010).
# Where no end group is shown, it is not given here.
# Columns and labels:
# Assay type in all cases: cell-based
# [1] = tested on: TNF production from human peripheral blood mononuclear cells (PBMC); test: TNF production from human PBMC, Cytometric Bead Array
# Experimental: (§1) Peripheral blood was drawn from healthy volunteers (with approval from the relevant ethical committee in Denmark). Heparinized blood was diluted 1/1 v/v with RPMI and were subjected to Ficoll density centrifugation within 2 h of drawing. Plasma was collected from the top from individual donors and was kept on ice until it was used at 2% in the culture medium (autologous culture medium). Isolated PBMC were resuspended in autologous culture medium and seeded in 96-well culture plates with 255.000 cells per well in a total of 200 μl. […] The concentrations used for stimulation were optimized on 3 different donors in initial experiments, for LPS two different concentrations were used to be sure to be on a cytokine level that is possible to modulate. In some experiments PBMC were treated with Dexamethason and Indomethacin alone and together with LPS or LTA as a control on downregulation of inflammatory cytokines. The supernatants were collected after incubation at 37° C. for 24 hours, and stored at −80° C. until cytokine measurement. Viability was measured by Alamar Blue (Biosource, DALL 1100) in all experiments and in some cases also by MTS (Promega) according to manufacturer's instruction and was in some experiments also judged by counting of the cells by a Nucleocounter.
# (§2) Cytokine production in supernatants was measured by flow cytometry with a human inflammation cytometric bead array (CBA) according to manufacturer's instructions (BD) on a FACSarray flow cytometer. The following cytokines were measured: IL-8, IL-1β, IL-10, TNF, IL-12 p70, IL-6. In some experiments, cytokines were measured by ELISA kits from R&D systems (IL-10, TNF-α, IL-1β) according to the manufacturer' instruction.
# [2] = tested on: IL-1β production from human peripheral blood mononuclear cells (PBMC); test: IL-1β production from human PBMC, Cytometric Bead Array
# Experimental: as §1, §2
# [3] = tested on: IL-10 production from human peripheral blood mononuclear cells (PBMC); test: IL-10 production from human PBMC, Cytometric Bead Array
# Experimental: as §1, §2
# [4] = LPS 0.6 ng/ml, test compound 1 μg/ml, Table 16
# [5] = LPS 0.6 ng/ml, test compound 10 μg/ml, Table 16
# [6] = LPS 0.6 ng/ml, test compound 40 μg/ml, Table 16
# [7] = LPS 20 ng/ml, test compound 1 μg/ml, Table 16
# [8] = LPS 20 ng/ml, test compound 10 μg/ml, Table 16
# [9] = LPS 20 ng/ml, test compound 40 μg/ml, Table 16
# [10] = LPS 0.6 ng/ml, test compound 1 μg/ml, Table 18
# [11] = LPS 0.6 ng/ml, test compound 10 μg/ml, Table 18
# [12] = LPS 0.6 ng/ml, test compound 40 μg/ml, Table 18
# [13] = LPS 20 ng/ml, test compound 1 μg/ml, Table 18
# [14] = LPS 20 ng/ml, test compound 10 μg/ml, Table 18
# [15] = LPS 20 ng/ml, test compound 40 μg/ml, Table 18
# [16] = LPS 0.6 ng/ml, test compound 1 μg/ml, Table 17
# [17] = LPS 0.6 ng/ml, test compound 10 μg/ml, Table 17
# [18] = LPS 0.6 ng/ml, test compound 40 μg/ml, Table 17
# [19] = LPS 20 ng/ml, test compound 1 μg/ml, Table 17
# [20] = LPS 20 ng/ml, test compound 10 μg/ml, Table 17
# [21] = LPS 20 ng/ml, test compound 40 μg/ml, Table 17
compound,measurement,setting,value
"COc1ccc2c(c1)c(CC(=O)O)c(C)n2C(=O)c1ccc(Cl)cc1 [Indomethacin, reference compound]",TNF,"[1]; LPS 0.6 ng/ml, Indomethacin 0.72 ug/ml, Table 11",[…]
same,IL-1β,"[2]; LPS 0.6 ng/ml, Indomethacin 0.72 ug/ml, Table 13",3100 pg/mL
same,IL-1β,"[2]; LPS 0.6 ng/ml, Indomethacin 7.2 ug/ml, Table 13",4100 pg/mL
same,IL-1β,"[2]; LPS 20 ng/ml, Indomethacin 0.72 ug/ml, Table 13",6460 pg/mL
same,IL-1β,"[2]; LPS 20 ng/ml, Indomethacin 7.2 ug/ml, Table 13",6120 pg/mL
same,IL-1β,"[2]; LTA 1.25 μg/ml, Indomethacin 0.72 ug/ml, Table 13",7530 pg/mL
same,IL-1β,"[2]; LTA 1.25 μg/ml, Indomethacin 7.2 ug/ml, Table 13",8910 pg/mL
same,IL-1β,"[2]; Medium, Indomethacin 0.72 ug/ml, Table 13",10 pg/mL
same,IL-1β,"[2]; Medium, Indomethacin 7.2 ug/ml, Table 13",40 pg/mL
same,IL-10,"[3]; LPS 0.6 ng/ml, Indomethacin 0.72 ug/ml, Table 12",37.3 pg/mL
same,IL-10,"[3]; LPS 0.6 ng/ml, Indomethacin 7.2 ug/ml, Table 12",45.7 pg/mL
same,IL-10,"[3]; LPS 20 ng/ml, Indomethacin 0.72 ug/ml, Table 12",108.0 pg/mL
same,IL-10,"[3]; LPS 20 ng/ml, Indomethacin 7.2 ug/ml, Table 12",77.9 pg/mL
same,IL-10,"[3]; LTA 1.25 μg/ml, Indomethacin 0.72 ug/ml, Table 12",84.9 pg/mL
same,IL-10,"[3]; LTA 1.25 μg/ml, Indomethacin 7.2 ug/ml, Table 12",90.4 pg/mL
same,IL-10,"[3]; Medium, Indomethacin 0.72 ug/ml, Table 12",0.0 pg/mL
same,IL-10,"[3]; Medium, Indomethacin 7.2 ug/ml, Table 12",0.0 pg/mL
"hBD1: human beta defensin 1, SEQ ID NO:1; prepared using chemical synthesis, Peptide Institute Inc. (DHYNCVSSGGQCLYSACPIFTKIQGTCYRGKAKCCK; ends and bridges not checked; cysteine pairing not given here; listed as Homo sapiens)",TNF,[1]; [4],474 pg/mL
same,TNF % of control,[1]; [4],65%
same,TNF,[1]; [5],203 pg/mL
same,TNF % of control,[1]; [5],28%
same,TNF,[1]; [6],91 pg/mL
same,TNF % of control,[1]; [6],13%
same,TNF,[1]; [7],1395 pg/mL
same,TNF % of control,[1]; [7],64%
same,TNF,[1]; [8],1311 pg/mL
same,TNF % of control,[1]; [8],61%
same,TNF,[1]; [9],999 pg/mL
same,TNF % of control,[1]; [9],46%
same,TNF,"[1]; Medium, test compound 1 μg/ml, Table 16",1 pg/mL
same,TNF,"[1]; Medium, test compound 10 μg/ml, Table 16",0 pg/mL
same,TNF,"[1]; Medium, test compound 40 μg/ml, Table 16",0 pg/mL
same,IL-1β,[2]; [10],512 pg/mL
same,IL-1β % of control,[2]; [10],69%
same,IL-1β,[2]; [11],401 pg/mL
same,IL-1β % of control,[2]; [11],54%
same,IL-1β,[2]; [12],302 pg/mL
same,IL-1β % of control,[2]; [12],41%
same,IL-1β,[2]; [13],2087 pg/mL
same,IL-1β % of control,[2]; [13],82%
same,IL-1β,[2]; [14],1913 pg/mL
same,IL-1β % of control,[2]; [14],75%
same,IL-1β,[2]; [15],1599 pg/mL
same,IL-1β % of control,[2]; [15],63%
same,IL-1β,"[2]; Medium, test compound 1 μg/ml, Table 18",0 pg/mL
same,IL-1β,"[2]; Medium, test compound 10 μg/ml, Table 18",0 pg/mL
same,IL-1β,"[2]; Medium, test compound 40 μg/ml, Table 18",0 pg/mL
same,IL-10,[3]; [16],71 pg/mL
same,IL-10 % of control,[3]; [16],108%
same,IL-10,[3]; [17],76 pg/mL
same,IL-10 % of control,[3]; [17],114%
same,IL-10,[3]; [18],69 pg/mL
same,IL-10 % of control,[3]; [18],104%
same,IL-10,[3]; [19],95 pg/mL
same,IL-10 % of control,[3]; [19],85%
same,IL-10,[3]; [20],100 pg/mL
same,IL-10 % of control,[3]; [20],90%
same,IL-10,[3]; [21],113 pg/mL
same,IL-10 % of control,[3]; [21],102%
same,IL-10,"[3]; Medium, test compound 1 μg/ml, Table 17",0 pg/mL
same,IL-10,"[3]; Medium, test compound 10 μg/ml, Table 17",0 pg/mL
same,IL-10,"[3]; Medium, test compound 40 μg/ml, Table 17",0 pg/mL
